Each compound was assayed against T1, human mGlu2 receptor (Homo sapiens, UniProt Q14416) (assay: FLIPR intracellular Ca2+ assay, potentiation of glutamate response in HEK293 clone expressing mGlu2 receptor, rGLAST and Galpha16). Details: 1 μM glutamate added ten minutes after test compound, HEK293 cells with human mGlu2, rGLAST, Galpha16, read-out: EC50 values of potentiation effect to glutamate.
T1 construct: expressed in transfected cells; host or cells: HEK293
Format: cell-based
Description: The compounds of the present invention can be tested e.g. by evaluating intracellular Ca^2+ concentrations in cells permanently expressing human mGlu receptor, the rat glutamate transporter rGLAST and the Galpha16 subunit of the G-protein complex under standard conditions in a fluorometric imaging plate reader (FLIPR, Molecular Devices, Union City, Calif. 94587, USA) by measuring the response of the cells to a test compound in the absence of presence of glutamate. The FLIPR assay is a common functional assay to monitor native or recombinant Galphaq-coupled receptors, and native or recombinant receptors normally linked to other G-protein signalling cascades, which are coupled to calcium through co-expression of an alpha subunit of a promiscuous or chimeric G-protein. In the assay the increase of intracellular calcium is measured through a calcium-dependent fluorescent dye (e.g. Fluo-4 AM) in the FLIPR instrument.
For the purpose of the present study, a cell line permanently expressing a human mGlu receptor, such as the mGlu2 receptor, the rat glutamate transporter rGLAST and the GalphaG16 may be generated by transfection as described in the examples. For selection of a suitable cell clone and also the subsequent measurements, the selected clone the cells will be plated on suitable multiwell plates in a suitable medium (e.g. DMEM Glutamax (GIBCO #21885-025)/10% dialyzed FCS). Cells may be selected by gentamycin treatment as described in the examples. Cells will then be loaded with a suitable Ca^2+ sensitive fluorescence dye, e.g. with 2 μM Fluo-4 AM (Molecular Probes, F14201). Cells will then be washed with a suitable buffer (e.g. HEPES) and the thus treated plates will be measured in a fluorometric imaging plate reader (e.g. FLIPR, Molecular Devices, Union City, Calif. 94587, USA).
The compounds of the present invention were tested in the above-described FLIPR assay using the selected cell clone. Increased intracellular calcium levels were quantified following addition of test compound (agonism), as well as following addition of a submaximal concentration of glutamate (potentiation).
For the determination of the effect of the test compound by itself (agonism) or by increasing the response to a submaximal concentration (e.g. 1 μM) of glutamate (potentiation), the resulting signal is determined by subtraction of the background fluorescence from the maximal fluorescent peak height of the respective response. In the FLIPR instrument the compound is given to the cell and its fluorescence response quantified by the FLIPR instrument (agonism). The concentration at which the compound exerts half its maximal effect is named the ‘effective concentration 50’ or ‘EC50’. The maximal effect induced by the test substance is normalized to the maximal effect exerted by 100 μM glutamate (set at 100%).
After addition of the test compound to the plate, a submaximal concentration of glutamate (e.g. 1 μM glutamate) will be added. A potentiator enhances the response of the receptor to glutamate. The response to glutamate in the presence of test compound is quantified. The concentration at which the test compound is able to exert half its maximal potentiation effect to glutamate is named the ‘EC50’. The maximal response to the submaximal concentration of glutamate (e.g. 1 micromolar glutamate) in the presence of test compound is normalized to the maximal effect exerted by 100 micromolar glutamate (set at 100%). Least squares curve fitting with a four-parameter equation is then applied to the resulting dose-response curve to determine the resulting EC5O values (Graph Pad Prism).
For the purpose of the present study, a cell line permanently expressing the human mGlu2 receptor, the rat glutamate transporter rGLAST and the alpha subunit of G16 was generated by transfection. […]

T1 sequence (Q14416 19-872): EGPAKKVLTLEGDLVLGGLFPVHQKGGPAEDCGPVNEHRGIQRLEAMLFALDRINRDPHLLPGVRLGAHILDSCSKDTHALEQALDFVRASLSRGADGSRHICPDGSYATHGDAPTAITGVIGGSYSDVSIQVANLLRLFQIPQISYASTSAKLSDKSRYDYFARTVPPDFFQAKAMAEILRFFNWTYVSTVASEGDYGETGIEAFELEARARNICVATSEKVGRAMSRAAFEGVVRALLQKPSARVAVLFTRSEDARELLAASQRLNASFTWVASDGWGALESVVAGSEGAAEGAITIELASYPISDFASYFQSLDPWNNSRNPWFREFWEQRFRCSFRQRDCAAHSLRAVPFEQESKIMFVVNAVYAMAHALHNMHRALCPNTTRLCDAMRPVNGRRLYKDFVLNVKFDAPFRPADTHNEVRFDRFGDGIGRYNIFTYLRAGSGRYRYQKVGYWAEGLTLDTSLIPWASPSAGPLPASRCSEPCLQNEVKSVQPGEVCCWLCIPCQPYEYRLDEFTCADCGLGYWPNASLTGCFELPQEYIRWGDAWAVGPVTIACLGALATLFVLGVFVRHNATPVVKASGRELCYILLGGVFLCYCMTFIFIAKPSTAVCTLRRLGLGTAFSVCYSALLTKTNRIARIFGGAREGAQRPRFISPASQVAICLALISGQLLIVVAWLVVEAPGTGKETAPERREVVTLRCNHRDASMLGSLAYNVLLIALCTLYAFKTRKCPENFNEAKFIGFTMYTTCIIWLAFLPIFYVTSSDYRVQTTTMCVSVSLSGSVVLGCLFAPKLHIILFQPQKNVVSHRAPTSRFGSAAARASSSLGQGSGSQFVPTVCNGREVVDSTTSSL

EC50 [µM] | SMILES
1 to 10 | CCCC(=O)c1ccc(NCc2cn(-c3ccccc3)nc2-c2ccncc2)cc1 [Example 214, 1-{4-[(1-Phenyl-3-pyridin-4-yl-1H-pyrazol-4-ylmethyl)-amino]-phenyl}-butan-1-one]
1 to 10 | CCCC(=O)c1ccc(NCc2n[nH]c3ccccc23)cc1 [Example 215, 1-{4-[(1H-Indazol-3-ylmethyl)-amino]-phenyl}-butan-1-one]
1 to 10 | CCCC(=O)c1ccc(NCc2ccnn2C)cc1 [Example 216, 1-{4-[(2-Methyl-2H-pyrazol-3-ylmethyl)-amino]-phenyl}-butan-1-one]
< 1 | CCCC(=O)c1ccc(NCc2c[nH]nc2-c2ccc(Cl)cc2)cc1 [Example 217, 1-(4-{[3-(4-Chloro-phenyl)-1H-pyrazol-4-ylmethyl]-amino}-phenyl)-butan-1-one]
< 1 | CCCC(=O)c1ccc(NCc2c[nH]nc2-c2ccc(OC)c(OC)c2)cc1 [Example 218, 1-(4-{[3-(3,4-Dimethoxy-phenyl)-1H-pyrazol-4-ylmethyl]-amino}-phenyl)-butan-1-one]
1 to 10 | CCCC(=O)c1ccc(NCc2nn(C)c3ccccc23)cc1 [Example 219, 1-{4-[(1-Methyl-1H-indazol-3-ylmethyl)-amino]-phenyl}-butan-1-one]
1 to 10 | CCCC(=O)c1ccc(NCc2cnn(Cc3ccccc3)c2)cc1 [Example 220, 1-{4-[(1-Benzyl-1H-pyrazol-4-ylmethyl)-amino]-phenyl}-butan-1-one]
1 to 10 | CCCC(=O)c1ccc(NCc2cn(-c3ccccc3)nc2-c2ccc(F)cc2)cc1 [Example 221, 1-(4-{[3-(4-Fluorophenyl)-1-phenyl-1H-pyrazol-4-ylmethyl]-amino}-phenyl)-butan-1-one]
1 to 10 | CCCC(=O)c1ccc(NCc2cn(-c3ccccc3)nc2-c2cccnc2)cc1 [Example 222, 1-{4-[(1-Phenyl-3-pyridin-3-yl-1H-pyrazol-4-ylmethyl)-amino]-phenyl}-butan-1-one]
1 to 10 | CCCC(=O)c1ccc(NCc2n[nH]c3ccc(OC)cc23)cc1 [Example 223, 1-{4-[(5-Methoxy-1H-indazol-3-ylmethyl)-amino]-phenyl}-butan-1-one]
1 to 10 | CCCC(=O)c1ccc(NCc2c(C)n[nH]c2C)cc1 [Example 224, 1-{4-[(3,5-Dimethyl-1H-pyrazol-4-ylmethyl)-amino]-phenyl}-butan-1-one]
1 to 10 | CCCC(=O)c1ccc(NCc2nc3ccccc3n2C)cc1 [Example 226, 1-{4-[(1-Methyl-1H-benzoimidazol-2-ylmethyl)-amino]-phenyl}-butan-1-one]
1 to 10 | CCCC(=O)c1ccc(NCc2c(C)noc2C)cc1 [Example 227, 1-{4-[(3,5-Dimethyl-isoxazol-4-ylmethyl)-amino]-phenyl}-butan-1-one]
1 to 10 | CCCC(=O)c1ccc(NCc2cn(C)cn2)cc1 [Example 228, 1-{4-[(1-Methyl-1H-imidazol-4-ylmethyl)-amino]-phenyl}-butan-1-one]
1 to 10 | CCCC(=O)c1ccc(NCc2sc(C)nc2-c2ccccc2)cc1 [Example 233, 1-{4-[(2-Methyl-4-phenyl-thiazol-5-ylmethyl)-amino]-phenyl}-butan-1-one]
1 to 10 | CCCC(=O)c1ccc(NCc2cnc(-c3ccccc3OC)s2)cc1 [Example 242, 1-(4-{[2-(2-Methoxy-phenyl)-thiazol-5-ylmethyl]-amino}-phenyl)-butan-1-one]
1 to 10 | CCCC(=O)c1ccc(NCc2cnc(-c3cccc(OC)c3)s2)cc1 [Example 243, 1-(4-{[2-(3-Methoxy-phenyl)-thiazol-5-ylmethyl]-amino}-phenyl)-butan-1-one]

EC50 [µM] | SMILES
1 to 10 | CCCC(=O)c1ccc(NCc2nc(-c3cccs3)oc2C)cc1 [Example 245, 1-{4-[(5-Methyl-2-thiophen-2-yl-oxazol-4-ylmethyl)-amino]-phenyl}-butan-1-one]
1 to 10 | CCCC(=O)c1ccc(NCc2cnc(-c3ccccc3)s2)cc1 [Example 246, 1-{4-[(2-Phenyl-thiazol-5-ylmethyl)-amino]-phenyl}-butan-1-one]
1 to 10 | CCCC(=O)c1ccc(NCc2sc(Cl)nc2Cl)cc1 [Example 250, 1-{4-[(2,4-Dichloro-thiazol-5-ylmethyl)-amino]-phenyl}-butan-1-one]
1 to 10 | CCCC(=O)c1ccc(NCc2cc(-c3ccccc3F)no2)cc1 [Example 255, 1-(4-{[3-(2-Fluorophenyl)-isoxazol-5-ylmethyl]-amino}-phenyl)-butan-1-one]
1 to 10 | CCCC(=O)c1ccc(NCc2cnc(Oc3ccc(OC)cc3)s2)cc1 [Example 260, 1-(4-{[2-(4-Methoxy-phenoxy)-thiazol-5-ylmethyl]-amino}-phenyl)-butan-1-one]
1 to 10 | CCCC(=O)c1ccc(NCc2csc(C(C)C)n2)cc1 [Example 268, 1-{4-[(2-Isopropyl-thiazol-4-ylmethyl)-amino]-phenyl}-butan-1-one]
1 to 10 | CCCOc1ccc(NCc2c[nH]nc2C(C)(C)C)cc1 [Example 273, (3-tert-Butyl-1H-pyrazol-4-ylmethyl)-(4-propoxy-phenyl)-amine]
1 to 10 | CC(C)(C)c1n[nH]cc1CNc1ccc(OC(F)(F)Cl)cc1 [Example 281, (3-tert-Butyl-1H-pyrazol-4-ylmethyl)-[4-(chloro-difluoro-methoxy)-phenyl]-amine]
1 to 10 | CN1CCC(Oc2ccc(NCc3c[nH]nc3C(C)(C)C)cc2)CC1 [Example 284, (3-tert-Butyl-1H-pyrazol-4-ylmethyl)-[4-(1-methyl-piperidin-4-yloxy)-phenyl]-amine]
1 to 10 | CC(C)(C)c1n[nH]cc1CNc1ccc(OCc2ccccn2)cc1 [Example 285, (3-tert-Butyl-1H-pyrazol-4-ylmethyl)-[4-(pyridin-2-ylmethoxy)-phenyl]-amine]
1 to 10 | CCCC(=O)c1ccc(NCc2ccc(Cl)nc2Cl)cc1 [Example 307, 1-{4-[(2,6-Dichloro-pyridin-3-ylmethyl)-amino]-phenyl}-butan-1-one]
1 to 10 | CCCC(=O)c1ccc(NCc2cccnc2OC(C)C)cc1 [Example 310, 1-{4-[(2-Isopropoxy-pyridin-3-ylmethyl)-amino]-phenyl}-butan-1-one]
1 to 10 | CCCOc1ncccc1CNc1ccc(C(=O)CCC)cc1 [Example 311, 1-{4-[(2-Propoxy-pyridin-3-ylmethyl)-amino]-phenyl}-butan-1-one]
1 to 10 | CCCC(=O)c1ccc(NCc2ccc(N3CCCCC3)nc2)cc1 [Example 312, 1-{4-[(3,4,5,6-Tetrahydro-2H-[1,2′]bipyridinyl-5′-ylmethyl)-amino]-phenyl}-butan-1-one]
1 to 10 | CCCC(=O)c1ccc(NCc2ccc(OC3CCCC3)nc2)cc1 [Example 313, 1-{4-[(6-Cyclopentyloxy-pyridin-3-ylmethyl)-amino]-phenyl}-butan-1-one]
1 to 10 | CCCC(=O)c1ccc(NCc2ccc(OC)nc2OC)cc1 [Example 317, 1-{4-[(2,6-Dimethoxy-pyridin-3-ylmethyl)-amino]-phenyl}-butan-1-one]
1 to 10 | CCCC(=O)c1ccc(NCc2cccnc2-c2ccsc2)cc1 [Example 321, 1-{4-[(2-Thiophen-3-yl-pyridin-3-ylmethyl)-amino]-phenyl}-butan-1-one]

SMILES | EC50 [µM]
CC(C)COc1ccc(NCc2c[nH]nc2C(C)(C)C)cc1 [Example 286, (3-tert-Butyl-1H-pyrazol-4-ylmethyl)-(4-isobutoxy-phenyl)-amine] | 1 to 10
CC(C)CCOc1ccc(NCc2c[nH]nc2C(C)(C)C)cc1 [Example 298, (3-tert-Butyl-1H-pyrazol-4-ylmethyl)-[4-(3-methyl-butoxy)-phenyl]-amine] | 1 to 10

— patent US9242933B2 (AbbVie Deutschland GmbH & Co. KG, priority 2007, dated 2016)
